{
  "source": "paper PMC6812009",
  "about": "“Covalent Aurora A regulation by the metabolic integrator coenzyme A” (Redox Biology, 2019)",
  "assay_in_all_cases": "Kinase profiling screen (radioactive filter-binding assay)",
  "format_in_all_cases": "biochemical",
  "key": {"MKK6": {"target": "T1, MKK6 (Homo sapiens, UniProt P52564)", "T1 sequence (P52564 1-334)": "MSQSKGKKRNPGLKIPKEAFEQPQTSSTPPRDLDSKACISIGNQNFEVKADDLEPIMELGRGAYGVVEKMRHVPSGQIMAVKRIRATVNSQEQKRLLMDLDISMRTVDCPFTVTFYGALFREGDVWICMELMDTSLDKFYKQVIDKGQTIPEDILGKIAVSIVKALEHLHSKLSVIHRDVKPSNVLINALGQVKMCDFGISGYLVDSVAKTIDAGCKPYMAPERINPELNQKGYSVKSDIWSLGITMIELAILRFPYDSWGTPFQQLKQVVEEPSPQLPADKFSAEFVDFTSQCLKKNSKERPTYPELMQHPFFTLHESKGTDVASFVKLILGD", "settings": "100 μM compound, 50 μM ATP; read-out: Kinase activity, % of activity in the absence of inhibitor", "how_it_was_run": "(§1)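 CoA, dpCoA and ADP were each tested in vitro, in duplicate, at 100 μM final concentration as part of a 117-kinase panel. Recombinant kinases were used with model substrates and optimal ATP concentrations.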"}, "MARK2": {"target": "MARK2 (Homo sapiens, UniProt Q7KZI7)", "sequence (Q7KZI7 whole entry)": "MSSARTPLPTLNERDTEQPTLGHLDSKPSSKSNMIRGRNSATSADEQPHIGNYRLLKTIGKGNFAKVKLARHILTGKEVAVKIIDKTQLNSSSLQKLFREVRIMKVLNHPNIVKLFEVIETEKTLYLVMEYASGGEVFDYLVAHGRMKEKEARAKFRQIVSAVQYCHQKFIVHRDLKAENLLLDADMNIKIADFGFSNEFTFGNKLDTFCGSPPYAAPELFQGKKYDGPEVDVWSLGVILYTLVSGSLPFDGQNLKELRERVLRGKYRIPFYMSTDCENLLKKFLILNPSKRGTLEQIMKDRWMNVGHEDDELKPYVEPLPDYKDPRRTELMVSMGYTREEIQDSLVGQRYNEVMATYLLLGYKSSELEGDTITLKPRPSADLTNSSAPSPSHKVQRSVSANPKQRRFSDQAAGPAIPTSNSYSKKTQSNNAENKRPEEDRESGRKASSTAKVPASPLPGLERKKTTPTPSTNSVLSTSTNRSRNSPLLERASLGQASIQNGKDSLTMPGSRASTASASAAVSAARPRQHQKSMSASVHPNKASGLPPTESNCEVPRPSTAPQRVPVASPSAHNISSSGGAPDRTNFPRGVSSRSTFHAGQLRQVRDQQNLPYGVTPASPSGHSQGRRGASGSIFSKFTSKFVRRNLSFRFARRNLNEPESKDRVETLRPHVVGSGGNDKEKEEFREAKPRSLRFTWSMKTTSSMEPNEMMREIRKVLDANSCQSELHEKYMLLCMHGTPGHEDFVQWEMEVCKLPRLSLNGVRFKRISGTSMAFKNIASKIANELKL", "settings": "100 μM compound, 20 μM ATP; read-out: Kinase activity, % of activity in the absence of inhibitor", "how_it_was_run": "as §1"}, "CAMK1": {"target": "CAMK1 (Homo sapiens, UniProt Q14012)", "settings": "100 μM compound, 50 μM ATP; read-out: Kinase activity, % of activity in the absence of inhibitor", "how_it_was_run": "as §1"}, "TIE2": {"target": "TIE2 (Homo sapiens, UniProt Q02763)", "sequence (Q02763 23-1124)": "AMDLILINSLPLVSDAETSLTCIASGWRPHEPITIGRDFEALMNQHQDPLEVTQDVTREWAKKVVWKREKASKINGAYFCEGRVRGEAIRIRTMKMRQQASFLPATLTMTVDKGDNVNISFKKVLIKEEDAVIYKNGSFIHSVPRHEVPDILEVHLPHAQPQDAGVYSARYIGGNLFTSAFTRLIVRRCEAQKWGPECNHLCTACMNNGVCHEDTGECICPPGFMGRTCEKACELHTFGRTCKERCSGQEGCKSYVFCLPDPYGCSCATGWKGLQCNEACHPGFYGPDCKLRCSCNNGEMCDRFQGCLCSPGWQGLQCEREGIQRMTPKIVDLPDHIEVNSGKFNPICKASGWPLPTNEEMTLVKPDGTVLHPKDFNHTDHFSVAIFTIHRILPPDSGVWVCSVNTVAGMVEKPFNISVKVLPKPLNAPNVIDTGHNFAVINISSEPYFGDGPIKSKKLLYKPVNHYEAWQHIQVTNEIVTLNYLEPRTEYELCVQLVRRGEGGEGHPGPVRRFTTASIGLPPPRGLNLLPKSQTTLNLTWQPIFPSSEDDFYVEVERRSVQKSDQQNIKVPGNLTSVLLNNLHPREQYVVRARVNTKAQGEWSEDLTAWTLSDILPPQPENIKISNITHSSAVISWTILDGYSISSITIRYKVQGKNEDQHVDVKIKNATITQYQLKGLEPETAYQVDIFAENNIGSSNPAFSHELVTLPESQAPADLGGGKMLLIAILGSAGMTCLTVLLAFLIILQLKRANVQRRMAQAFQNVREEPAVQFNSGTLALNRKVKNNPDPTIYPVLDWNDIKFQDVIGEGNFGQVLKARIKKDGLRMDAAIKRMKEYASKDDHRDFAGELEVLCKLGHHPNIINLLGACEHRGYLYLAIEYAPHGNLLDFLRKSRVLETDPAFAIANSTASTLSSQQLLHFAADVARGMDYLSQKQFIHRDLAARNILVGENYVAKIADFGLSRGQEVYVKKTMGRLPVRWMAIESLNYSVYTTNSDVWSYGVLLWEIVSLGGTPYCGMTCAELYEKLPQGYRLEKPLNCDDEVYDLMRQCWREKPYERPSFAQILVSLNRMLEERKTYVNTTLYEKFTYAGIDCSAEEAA", "settings": "100 μM compound, 20 μM ATP; read-out: Kinase activity, % of activity in the absence of inhibitor", "how_it_was_run": "as §1"}, "ZAP70": {"target": "T2, ZAP70 (Homo sapiens, UniProt P43403)", "T2 sequence (P43403 1-619)": "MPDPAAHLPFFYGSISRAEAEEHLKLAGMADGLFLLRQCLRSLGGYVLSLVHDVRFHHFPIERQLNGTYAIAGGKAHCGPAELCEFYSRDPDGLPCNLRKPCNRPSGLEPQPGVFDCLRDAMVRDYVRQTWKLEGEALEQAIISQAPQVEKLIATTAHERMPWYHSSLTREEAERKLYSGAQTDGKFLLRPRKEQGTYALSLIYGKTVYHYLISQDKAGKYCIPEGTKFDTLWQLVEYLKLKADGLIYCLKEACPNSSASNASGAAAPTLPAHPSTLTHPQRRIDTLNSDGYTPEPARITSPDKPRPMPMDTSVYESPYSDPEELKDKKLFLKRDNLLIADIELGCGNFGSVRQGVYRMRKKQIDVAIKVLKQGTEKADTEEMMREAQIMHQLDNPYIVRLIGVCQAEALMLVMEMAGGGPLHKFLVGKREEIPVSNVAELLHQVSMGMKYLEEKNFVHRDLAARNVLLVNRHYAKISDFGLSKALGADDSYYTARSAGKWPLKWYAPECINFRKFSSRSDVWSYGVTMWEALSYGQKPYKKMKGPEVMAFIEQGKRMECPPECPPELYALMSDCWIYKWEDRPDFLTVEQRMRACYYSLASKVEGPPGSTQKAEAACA", "settings": "100 μM compound, 5 μM ATP; read-out: Kinase activity, % of activity in the absence of inhibitor", "how_it_was_run": "as §1"}, "PKCα": {"target": "PKCα (Homo sapiens, UniProt P17252)", "settings": "100 μM compound, read-out: Kinase activity, % of activity in the absence of inhibitor", "how_it_was_run": "as §1"}, "JNK1": {"target": "JNK1 (Homo sapiens, UniProt P45983)", "sequence (P45983 whole entry)": "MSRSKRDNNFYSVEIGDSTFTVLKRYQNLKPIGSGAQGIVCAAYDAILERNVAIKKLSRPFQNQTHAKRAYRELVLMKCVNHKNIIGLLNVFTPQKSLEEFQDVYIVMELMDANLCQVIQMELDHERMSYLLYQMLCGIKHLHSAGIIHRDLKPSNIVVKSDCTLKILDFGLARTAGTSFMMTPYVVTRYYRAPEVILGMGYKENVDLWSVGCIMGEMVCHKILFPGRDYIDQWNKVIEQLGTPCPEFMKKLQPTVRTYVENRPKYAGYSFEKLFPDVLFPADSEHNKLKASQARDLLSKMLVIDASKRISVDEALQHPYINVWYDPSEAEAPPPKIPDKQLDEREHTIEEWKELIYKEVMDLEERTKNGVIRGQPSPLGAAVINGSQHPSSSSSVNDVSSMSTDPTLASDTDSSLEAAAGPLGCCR", "settings": "100 μM compound, 20 μM ATP; read-out: Kinase activity, % of activity in the absence of inhibitor", "how_it_was_run": "as §1"}, "NEK2α": {"target": "T3, NEK2α (Homo sapiens, UniProt P51955)", "T3 sequence (P51955 1-445)": "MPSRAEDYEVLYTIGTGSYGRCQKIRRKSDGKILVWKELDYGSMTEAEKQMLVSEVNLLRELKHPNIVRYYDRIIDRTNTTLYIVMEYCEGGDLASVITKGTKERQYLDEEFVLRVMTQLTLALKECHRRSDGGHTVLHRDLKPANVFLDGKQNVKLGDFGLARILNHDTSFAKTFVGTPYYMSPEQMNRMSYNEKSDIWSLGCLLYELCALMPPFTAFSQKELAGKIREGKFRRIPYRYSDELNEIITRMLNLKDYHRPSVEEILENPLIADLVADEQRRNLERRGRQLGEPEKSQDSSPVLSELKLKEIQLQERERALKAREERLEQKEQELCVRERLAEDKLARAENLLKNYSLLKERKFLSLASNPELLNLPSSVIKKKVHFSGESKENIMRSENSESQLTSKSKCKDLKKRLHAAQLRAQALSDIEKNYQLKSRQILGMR", "settings": "100 μM compound, 50 μM ATP; read-out: Kinase activity, % of activity in the absence of inhibitor", "how_it_was_run": "as §1"}, "CDK2-Cyclin A": {"target": "CDK2-Cyclin A (Homo sapiens, UniProt P24941)", "settings": "100 μM compound, 20 μM ATP; read-out: Kinase activity, % of activity in the absence of inhibitor", "how_it_was_run": "as §1"}, "HER4": {"target": "HER4 (Homo sapiens, UniProt Q15303)", "sequence (Q15303 26-1308)": "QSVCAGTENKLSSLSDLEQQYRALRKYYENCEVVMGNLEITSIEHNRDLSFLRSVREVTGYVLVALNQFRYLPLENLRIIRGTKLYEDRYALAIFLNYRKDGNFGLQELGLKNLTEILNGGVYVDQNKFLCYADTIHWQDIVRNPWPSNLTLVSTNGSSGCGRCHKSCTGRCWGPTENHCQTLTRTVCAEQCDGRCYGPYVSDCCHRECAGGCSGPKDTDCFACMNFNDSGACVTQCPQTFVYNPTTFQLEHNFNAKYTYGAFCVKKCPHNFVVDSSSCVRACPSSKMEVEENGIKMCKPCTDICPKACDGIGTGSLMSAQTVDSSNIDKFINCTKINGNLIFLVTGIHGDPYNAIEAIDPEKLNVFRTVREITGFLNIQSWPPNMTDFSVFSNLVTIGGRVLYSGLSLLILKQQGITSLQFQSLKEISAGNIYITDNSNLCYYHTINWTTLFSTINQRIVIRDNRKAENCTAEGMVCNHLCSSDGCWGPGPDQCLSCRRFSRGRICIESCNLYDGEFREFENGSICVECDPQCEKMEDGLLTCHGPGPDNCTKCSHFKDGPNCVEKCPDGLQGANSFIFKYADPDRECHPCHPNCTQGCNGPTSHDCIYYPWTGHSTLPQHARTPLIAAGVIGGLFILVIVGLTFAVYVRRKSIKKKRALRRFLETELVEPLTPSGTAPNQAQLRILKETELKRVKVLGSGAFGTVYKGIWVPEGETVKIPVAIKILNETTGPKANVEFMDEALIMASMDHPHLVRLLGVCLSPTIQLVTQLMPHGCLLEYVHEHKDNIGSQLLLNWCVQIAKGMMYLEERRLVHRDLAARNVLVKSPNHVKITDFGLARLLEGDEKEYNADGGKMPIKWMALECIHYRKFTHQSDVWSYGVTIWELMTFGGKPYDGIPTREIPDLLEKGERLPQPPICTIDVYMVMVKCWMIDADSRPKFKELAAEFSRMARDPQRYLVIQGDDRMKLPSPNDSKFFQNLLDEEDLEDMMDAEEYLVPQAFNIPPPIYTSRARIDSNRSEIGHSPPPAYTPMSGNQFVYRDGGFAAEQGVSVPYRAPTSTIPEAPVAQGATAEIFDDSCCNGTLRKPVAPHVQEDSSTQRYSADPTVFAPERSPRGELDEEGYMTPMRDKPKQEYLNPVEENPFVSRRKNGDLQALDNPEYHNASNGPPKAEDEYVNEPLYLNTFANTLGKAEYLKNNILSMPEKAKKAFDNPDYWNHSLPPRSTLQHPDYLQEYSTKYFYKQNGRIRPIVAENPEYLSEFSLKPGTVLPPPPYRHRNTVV", "settings": "100 μM compound, 5 μM ATP; read-out: Kinase activity, % of activity in the absence of inhibitor", "how_it_was_run": "as §1"}, "S6K1": {"target": "S6K1 (Homo sapiens, UniProt P23443)", "sequence (P23443 whole entry)": "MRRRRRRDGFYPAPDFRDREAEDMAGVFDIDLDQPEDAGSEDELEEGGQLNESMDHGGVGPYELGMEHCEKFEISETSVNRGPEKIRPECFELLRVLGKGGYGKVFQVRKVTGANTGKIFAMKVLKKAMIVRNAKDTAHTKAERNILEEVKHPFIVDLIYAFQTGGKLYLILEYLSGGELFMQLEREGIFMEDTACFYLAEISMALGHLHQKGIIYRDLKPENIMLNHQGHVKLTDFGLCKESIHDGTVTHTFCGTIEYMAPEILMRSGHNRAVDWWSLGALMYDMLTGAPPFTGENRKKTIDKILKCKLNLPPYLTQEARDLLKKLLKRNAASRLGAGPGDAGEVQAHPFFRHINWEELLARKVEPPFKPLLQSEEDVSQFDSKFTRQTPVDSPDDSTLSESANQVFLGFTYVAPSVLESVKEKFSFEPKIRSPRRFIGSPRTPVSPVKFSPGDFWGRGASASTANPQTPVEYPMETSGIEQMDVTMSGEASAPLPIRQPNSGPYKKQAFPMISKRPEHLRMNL", "settings": "100 μM compound, 20 μM ATP; read-out: Kinase activity, % of activity in the absence of inhibitor", "how_it_was_run": "as §1"}},
  "note": "Where two headings read alike, the source gives them in different places.",
  "data": [
    {"smiles": "Nc1ncnc2c1ncn2C1OC(COP(=O)(O)OP(=O)(O)O)C(O)C1O", "note": "(stereo not drawn) [ADP]", "values": [
      {"measurement": "activity at 100 µM", "setting": "MKK6", "value": 39.1, "unit": "%"},
      {"measurement": "activity at 100 µM", "setting": "MARK2", "value": 25, "unit": "%"},
      {"measurement": "activity at 100 µM", "setting": "CAMK1", "value": 80.1, "unit": "%"},
      {"measurement": "activity at 100 µM", "setting": "TIE2", "value": 33.1, "unit": "%"},
      {"measurement": "activity at 100 µM", "setting": "ZAP70", "value": 13.2, "unit": "%"},
      {"measurement": "activity at 100 µM", "setting": "PKCα; 5 μM ATP", "value": 38.6, "unit": "%"},
      {"measurement": "activity at 100 µM", "setting": "PKCα; 20 μM ATP", "value": 76.5, "unit": "%"},
      {"measurement": "activity at 100 µM", "setting": "JNK1", "value": 53.9, "unit": "%"},
      {"measurement": "activity at 100 µM", "setting": "NEK2α", "value": 42.1, "unit": "%"},
      {"measurement": "activity at 100 µM", "setting": "CDK2-Cyclin A", "value": 26.3, "unit": "%"},
      {"measurement": "activity at 100 µM", "setting": "HER4", "value": 29.1, "unit": "%"},
      {"measurement": "activity at 100 µM", "setting": "S6K1", "value": 35.5, "unit": "%"}
    ]},
    {"smiles": "CC(C)(COP(=O)(O)OP(=O)(O)OCC1OC(n2cnc3c(N)ncnc32)C(O)C1O)C(O)C(=O)NCCC(=O)NCCS", "note": "(stereo not drawn) [dpCoA, dephospho-CoA]", "values": [
      {"measurement": "activity at 100 µM", "setting": "MKK6", "value": 88.2, "unit": "%"},
      {"measurement": "activity at 100 µM", "setting": "MARK2", "value": 81.5, "unit": "%"},
      {"measurement": "activity at 100 µM", "setting": "CAMK1", "value": 126, "unit": "%"},
      {"measurement": "activity at 100 µM", "setting": "TIE2", "value": 83.4, "unit": "%"},
      {"measurement": "activity at 100 µM", "setting": "ZAP70", "value": 79.8, "unit": "%"},
      {"measurement": "activity at 100 µM", "setting": "PKCα; 5 μM ATP", "value": 76.8, "unit": "%"},
      {"measurement": "activity at 100 µM", "setting": "PKCα; 20 μM ATP", "value": 88.9, "unit": "%"},
      {"measurement": "activity at 100 µM", "setting": "JNK1", "value": 82.4, "unit": "%"},
      {"measurement": "activity at 100 µM", "setting": "NEK2α", "value": 100, "unit": "%"},
      {"measurement": "activity at 100 µM", "setting": "CDK2-Cyclin A", "value": 81.1, "unit": "%"},
      {"measurement": "activity at 100 µM", "setting": "HER4", "value": 75.7, "unit": "%"},
      {"measurement": "activity at 100 µM", "setting": "S6K1", "value": 30.5, "unit": "%"}
    ]},
    {"smiles": "CC(C)(COP(=O)(O)OP(=O)(O)OC[C@H]1O[C@@H](n2cnc3c(N)ncnc32)[C@H](O)[C@@H]1OP(=O)(O)O)[C@@H](O)C(=O)NCCC(=O)NCCS", "note": "[CoA, Coenzyme A]", "values": [
      {"measurement": "activity at 100 µM", "setting": "MKK6", "value": 88.6, "unit": "%"},
      {"measurement": "activity at 100 µM", "setting": "MARK2", "value": 93.1, "unit": "%"},
      {"measurement": "activity at 100 µM", "setting": "CAMK1", "value": 124, "unit": "%"},
      {"measurement": "activity at 100 µM", "setting": "TIE2", "value": 93, "unit": "%"},
      {"measurement": "activity at 100 µM", "setting": "ZAP70", "value": 89.7, "unit": "%"},
      {"measurement": "activity at 100 µM", "setting": "PKCα; 5 μM ATP", "value": 104, "unit": "%"},
      {"measurement": "activity at 100 µM", "setting": "PKCα; 20 μM ATP", "value": 78.1, "unit": "%"},
      {"measurement": "activity at 100 µM", "setting": "JNK1", "value": 85.4, "unit": "%"},
      {"measurement": "activity at 100 µM", "setting": "NEK2α", "value": 148, "unit": "%"},
      {"measurement": "activity at 100 µM", "setting": "CDK2-Cyclin A", "value": 93.2, "unit": "%"},
      {"measurement": "activity at 100 µM", "setting": "HER4", "value": 100, "unit": "%"},
      {"measurement": "activity at 100 µM", "setting": "S6K1", "value": 89.1, "unit": "%"}
    ]}
  ]
}
